According to patent US20230250096A1, “SUBSTITUTED PHENYL-1H-PYRROLO[2,3-c] PYRIDINE DERIVATIVES” (Janssen Pharmaceutica NV, priority 2021, published 2023):

Assays:
[1] = biological target: T1, menin/MLL (terbium chelate-labeled menin, FITC-MBM1 peptide) (Homo sapiens, UniProt O00255, T541A); assay: Menin/MLL homogenous time-resolved fluorescence (HTRF) assay; type: binding; settings: 30 min incubation
T1 construct: Menin (a.a 1-610-6xhis tag, 2.3 mg/mL in 20 mM Hepes)
T1 sequence (O00255 with tags, fused parts or gaps T541A): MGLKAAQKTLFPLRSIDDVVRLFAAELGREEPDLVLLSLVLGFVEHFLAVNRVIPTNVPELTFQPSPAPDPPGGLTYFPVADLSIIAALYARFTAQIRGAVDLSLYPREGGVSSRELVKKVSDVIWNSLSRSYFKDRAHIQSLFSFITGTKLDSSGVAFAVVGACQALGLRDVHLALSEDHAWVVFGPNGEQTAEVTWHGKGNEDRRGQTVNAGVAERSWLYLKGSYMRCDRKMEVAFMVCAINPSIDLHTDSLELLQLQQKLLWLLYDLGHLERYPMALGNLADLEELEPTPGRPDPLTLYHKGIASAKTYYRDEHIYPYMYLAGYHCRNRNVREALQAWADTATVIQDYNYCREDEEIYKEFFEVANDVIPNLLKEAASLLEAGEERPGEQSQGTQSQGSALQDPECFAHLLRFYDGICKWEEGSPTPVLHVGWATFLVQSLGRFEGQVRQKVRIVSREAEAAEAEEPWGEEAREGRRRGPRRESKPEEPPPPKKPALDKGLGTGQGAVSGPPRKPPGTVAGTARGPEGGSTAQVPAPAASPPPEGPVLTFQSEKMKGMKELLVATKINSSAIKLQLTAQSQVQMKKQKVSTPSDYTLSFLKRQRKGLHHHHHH
Outline: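 Competition binding read by time-resolved FRET (FITC 520 nm over terbium 490 nm) after compound meets labeled menin 1-610-His […] for 30 min, then FITC-MBM1 (75 nM) for 15 min, ambient temperature, 0.5% DMSO. Eleven-point four-fold dilutions, usually starting at 10 μM, fitted to four-parameter curves for IC50.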

[2] = system: MEIS1 mRNA expression; assay: MEIS1 mRNA expression assay (Quantigene Singleplex) in MOLM14 cells; type: cell-based, human; settings: 48 hours incubation
Outline: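 Read-out: MEIS1 transcript counts, background-subtracted and divided by RPL28, expressed as fold change over DMSO-treated cells, then dose-response modelled for IC50. MOLM14 cells (3,750/well) received graded compound for 48 h before lysis and QuantiGene hybridization at 55 °C.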

Row | Compound | IC50 [1] [nM] | IC50 ([2]; Homo sapiens, MOLM-14, 48 h) [nM] | IC50 [2] [nM]
1 | Cc1cncc2c1c(C[C@H]1CCN(CC3(C)CCN(C(N)=O)CC3)C1)cn2-c1ccc(F)cc1C(=O)N(C)C(C)C [Compound 218] | 0.094 | 48 | 
2 | Cc1cncc2c1c(CC1CN(CC3(C)CCN(C(N)=O)CC3)C1)cn2-c1ccc(F)cc1C(=O)N(C)C(C)C [Compound 219] | 0.039 | 32 | 
3 | CC(=O)N1C[C@@H]2[C@H](CN3CC[C@@H](Cc4cn(-c5ccc(F)cc5C(=O)N(C)C(C)C)c5cncc(C)c45)C3)[C@@H]2C1 [Compound 220] | 0.932 | > 1000 | 
4 | Cc1cncc2c1c(CC1CN(C[C@H]3CC[C@@H](C(=O)N(C)C)CC3)C1)cn2-c1ccc(F)cc1C(=O)N(C)C(C)C [Compound 221] | 0.311 | 109 | 
5 | CC(=O)N1CC2CC1CC2N1CC[C@@H](Cc2cn(-c3ccc(F)cc3C(=O)N(C)C(C)C)c3cncc(C)c23)C1 (stereo partly drawn) [Compound 223] | 0.239 | 279 | 
6 | CC(=O)N1CCC(CN2CCC(Cc3cn(-c4ccc(F)cc4C(=O)N(C)C(C)C)c4cncc(C)c34)C2C)CC1 (stereo not drawn) [Compound 227] | 0.655 |  | 551
7 | CC(=O)N1CCC(CN2CCC(Cc3cn(-c4ccc(F)cc4C(=O)N(C)C(C)C)c4cncc(C)c34)C2C)CC1 (stereo not drawn) [Compound 229] | 0.235 |  | 93
8 | Cc1cncc2c1c(CC1CCN(CC3CCN(C(=O)N(C)C)CC3)CC1)cn2-c1ccc(F)cc1C(=O)N(C)C(C)C [Compound 235] | 0.097 | 14 | 
9 | CNC(=O)[C@H]1CC[C@@H](CN2CC[C@H](Cc3cn(-c4ccc(F)cc4C(=O)N(C)C(C)C)c4cncc(C)c34)C2)CC1 [Compound 236] | 0.086 | ~98.9 | 
10 | CC(=O)N1CCC(CN2CC[C@@H](Cc3cn(-c4ccc(F)cc4C(=O)NC(C)C)c4cncc(C)c34)C2)CC1 [Compound 238] | 1.94 | > 1000 | 
11 | CC(=O)N1CCC(C)C(N2CC[C@@H](Cc3cn(-c4ccc(F)cc4C(=O)N(C)C(C)C)c4cncc(C)c34)C2)C1 (stereo partly drawn) [Compound 242] | 0.811 |  | > 1000
12 | CC(=O)N1CCC(C)C(N2CC[C@@H](Cc3cn(-c4ccc(F)cc4C(=O)N(C)C(C)C)c4cncc(C)c34)C2)C1 (stereo partly drawn) [Compound 243] | 0.097 |  | 37
13 | Cc1cncc2c1c(C[C@H]1CCN(CC3CCN(C(=O)C(C)(C)O)CC3)C1)cn2-c1ccc(F)cc1C(=O)N(C)C(C)C [Compound 244] | 0.101 | 51 | 
14 | Cc1cncc2c1c(C[C@H]1CCN(CC3CCN(C(=O)C4(O)CC4)CC3)C1)cn2-c1ccc(F)cc1C(=O)N(C)C(C)C [Compound 245] | 0.185 | 65 | 
15 | CCN(C(=O)c1cc(F)ccc1-n1cc(C[C@@H]2CCN(CC3CCN(C(C)=O)CC3)C2)c2c(C)cncc21)C(C)C [Compound 255] | 0.102 | 10 | 
16 | CCN(C(=O)c1cc(F)ccc1-n1cc(C[C@@H]2CCN(CC3CCOCC3)C2)c2c(C)cncc21)C(C)C [Compound 257] | 0.031 | 7 | 
17 | CC(=O)N1CCC(CN2CC[C@@H](Cc3cn(-c4ccc(F)cc4C(=O)N(C(C)C)C(C)C)c4cncc(C)c34)C2)CC1 [Compound 258] | 0.021 | 11 | 
18 | Cc1cncc2c1c(CC1CN(CC3CCOCC3)C1)cn2-c1ccc(F)cc1C(=O)N1C2COCC1C2 [Compound 263] | 0.258 | 175 | 
19 | Cc1cncc2c1c(CC1CN(CC3CCOCC3)C1)cn2-c1ccc(F)cc1C(=O)N(C)C1CC1 [Compound 265] | 0.097 | 46 | 
20 | Cc1cncc2c1c(CC1CN(CC3CCOCC3)C1)cn2-c1ccc(F)cc1C(=O)N1CCC(O)C1C (stereo not drawn) [Compound 271] | 0.368 | 288 | 
21 | Cc1cncc2c1c(CC1CN(CC3CCOCC3)C1)cn2-c1ccc(F)cc1C(=O)N1CCC(O)C1(C)C (stereo not drawn) [Compound 272] | 0.31 | ~270 | 
22 | Cc1cncc2c1c(CC1CN(CC3CCOCC3)C1)cn2-c1ccc(F)cc1C(=O)N1CC2(O)CC1C2 [Compound 273] | 1.08 | > 1000 | 
23 | Cc1cncc2c1c(CC1CN(CC3CCOCC3)C1)cn2-c1ccc(F)cc1C(=O)N(C)[C@H]1C[C@@H](O)C1 [Compound 274] | 2.42 | > 1000 | 
24 | Cc1cncc2c1c(CC1CN(CC3CCOCC3)C1)cn2-c1ccc(F)cc1C(=O)N(C)C1(CO)CC1 [Compound 277] | 0.481 | ~502 | 
25 | Cc1cncc2c1c(CC1CN(CC3CCOCC3)C1)cn2-c1ccc(F)cc1C(=O)N(CCO)C1CC1 [Compound 278] | 0.323 | 342 | 
26 | Cc1cncc2c1c(CC1CN(CC3CCOCC3)C1)cn2-c1ccc(F)cc1C(=O)N1C[C@H](O)C[C@@H]1C [Compound 282] | 3.27 | > 1000 | 
27 | Cc1ccc(CN2CC(Cc3cn(-c4ccc(F)cc4C(=O)N(C)C(C)C)c4cncc(C)c34)C2)nn1 [Compound 284] | 4.19 | ~2360 | 
28 | Cc1cc(CN2CC(Cc3cn(-c4ccc(F)cc4C(=O)N(C)C(C)C)c4cncc(C)c34)C2)[nH]n1 [Compound 285] | 1.49 | ~1330 | 
29 | Cc1cncc2c1c(CC1CN(CC3(C)COC3)C1)cn2-c1ccc(F)cc1C(=O)N(C)C(C)C [Compound 286] | 0.046 | 59 | 

Further compounds by falling IC50 [1], results first:

Row | IC50 [1] [nM] | IC50 ([2]; Homo sapiens, MOLM-14, 48 h) [nM] | IC50 [2] [nM] | Compound
30 | 1.7 | 18 |  | Cc1cncc2c1c(CC1CN(CC3CCOCC3)C1)cn2-c1ccc(F)cc1C(=O)N(C)C1CCOC1 (stereo not drawn) [Compound 269]
31 | 0.945 | > 1000 |  | Cc1cncc2c1c(CC1CN(CC3CCOCC3)C1)cn2-c1ccc(F)cc1C(=O)N(C)[C@H]1C[C@H](O)C1 [Compound 275]
32 | 0.61 | 440 |  | CNC(=O)c1cccc(CN2CC(Cc3cn(-c4ccc(F)cc4C(=O)N(C)C(C)C)c4cncc(C)c34)C2)c1 [Compound 283]
33 | 0.532 | ~462 |  | Cc1cncc2c1c(CC1CN(CC3CCOCC3)C1)cn2-c1ccc(F)cc1C(=O)N(C)C1(CO)CCC1 [Compound 276]
34 | 0.349 | 431 |  | Cc1cncc2c1c(CC1CN(CC3CCOCC3)C1)cn2-c1ccc(F)cc1C(=O)N1CCC12COC2 [Compound 266]
35 | 0.305 | 138 |  | Cc1cncc2c1c(CC1(C)CCN(CC3CCOCC3)C1)cn2-c1ccc(F)cc1C(=O)N(C)C(C)C (stereo not drawn) [Compound 239]
36 | 0.255 |  | 269 | CC(=O)N1CCC(CN2CCC(Cc3cn(-c4ccc(F)cc4C(=O)N(C)C(C)C)c4cncc(C)c34)C2C)CC1 (stereo not drawn) [Compound 226]
37 | 0.24 | 166 |  | COCC1CCCN1C(=O)c1cc(F)ccc1-n1cc(CC2CN(CC3CCOCC3)C2)c2c(C)cncc21 (stereo not drawn) [Compound 267]
38 | 0.213 | 217 |  | Cc1cncc2c1c(CC1CN(CC3CCOCC3)C1)cn2-c1ccc(F)cc1C(=O)N1CCC12CCC2 [Compound 261]
39 | 0.149 | 52 |  | Cc1cncc2c1c(CC1CCN(CC3CCN(C(=O)C(C)(C)O)CC3)CC1)cn2-c1ccc(F)cc1C(=O)N(C)C(C)C [Compound 237]
40 | 0.084 | 173 |  | CNC(=O)[C@H]1CC[C@@H](CN2CC(Cc3cn(-c4ccc(F)cc4C(=O)N(C)C(C)C)c4cncc(C)c34)C2)CC1 [Compound 241]
41 | 0.077 | 51 |  | Cc1cncc2c1c(CC1CN(CC3CCOCC3)C1)cn2-c1ccc(F)cc1C(=O)N1CCCCC1C (stereo not drawn) [Compound 280]
42 | 0.076 | 30 |  | Cc1cncc2c1c(CC1CN(CC3CCN(C(=O)C(C)(C)O)CC3)C1)cn2-c1ccc(F)cc1C(=O)N(C)C(C)C [Compound 250]
43 | 0.073 | 20 |  | CCN(C(=O)c1cc(F)ccc1-n1cc(C[C@H]2CCN(CC3CCN(C(C)=O)CC3)C2)c2c(C)cncc21)C(C)C [Compound 256]
44 | 0.066 | 83 |  | Cc1cncc2c1c(CC1CN(CC3CCN(C(=O)C4(O)CC4)CC3)C1)cn2-c1ccc(F)cc1C(=O)N(C)C(C)C [Compound 251]
45 | 0.042 | ~27.6 |  | CCc1cncc2c1c(C[C@H]1CCN(CC3CCN(C(C)=O)CC3)C1)cn2-c1ccc(F)cc1C(=O)N(C)C(C)C [Compound 260]
46 | 0.039 | 21 |  | Cc1cncc2c1c(C[C@@H]1CCN(CC3(C)CCN(C(N)=O)CC3)C1)cn2-c1ccc(F)cc1C(=O)N(C)C(C)C [Compound 217]
47 | 0.031 | 138 |  | CCc1cncc2c1c(C[C@@H]1CCN(CC3CCN(C(C)=O)CC3)C1)cn2-c1ccc(F)cc1C(=O)N(C)C(C)C [Compound 259]
48 | 0.023 | 7 |  | Cc1cncc2c1c(C[C@@H]1CCN(CC3CCN(C(=O)C4(O)CC4)CC3)C1)cn2-c1ccc(F)cc1C(=O)N(C)C(C)C [Compound 249]
